# Reference: article PMC8037182, “Solvothermal Synthesis of Multiple Dihydropyrimidinones at a Time as Inhibitors of Eg5” (Molecules, 2021)
# Tested on: Hela cell line
# Experiment: Cytotoxicity MTS assay, Hela cell line
# Format: cell-based
# Conditions: for OD490 value, Mean / OD490 value, Well 1 / OD490 value, Well 2 / OD490 value, Well 3: Hela cell line, MTS; for IC50: MTS assay, 24 h exposure
# Description: The positive compounds (IC50 < 100 μM) obtained from the primary Eg5 motor protein ATPase assay were tested for antiproliferative activity in vitro against Caco-2 cell line, Hela cell line, L929 cell line and T24 cell line by performing MTS assay. Cells were introduced into 96-well plates at a density of 1000 cells per well. After 24 h incubation, the cells were exposed with compounds at final concentrations ranging from 0.5 to 100 µM for 24 h. DMSO was used at a final concentration of 0.025% as blank control, monastrol was used as the positive control. Then 20 µL (CellTiter 96® AQueous One Solution Promega, Madison, WI, USA) reagent was added in each well. After 2 h at 37 °C in a 80% humidified, 5% CO2 atmosphere, the absorbance at 490 nm was recorded using a microplate reader (BIO-RAD iMark^TM). The results were obtained in three independent duplicate experiments. The primary data were shown in Supplementary Materials Tables S4–S7. The IC50 values for these compounds were calculated from a non-linear regression graph plotted between the percentage of cell viability and concentration with SPSS17.0 software.
smiles,measurement,setting,value
CCOC(=O)c1[nH]c(C2NC(=O)NC(C)=C2C(=O)Nc2ccccc2OC)c(C(=O)OC)c1C (centres unmarked) [D3],"OD490 value, Mean","0.5μM, first assay",2.7753
same,"OD490 value, Well 1","0.5μM, first assay",2.9485
same,"OD490 value, Well 2","0.5μM, first assay",2.6032
same,"OD490 value, Well 3","0.5μM, first assay",2.7743
same,"OD490 value, Mean","0.5μM, second assay",2.7117
same,"OD490 value, Well 1","0.5μM, second assay",2.7664
same,"OD490 value, Well 2","0.5μM, second assay",2.9230
same,"OD490 value, Well 3","0.5μM, second assay",2.4458
same,"OD490 value, Mean","0.5μM, third assay",2.8303
same,"OD490 value, Well 1","0.5μM, third assay",2.8863
same,"OD490 value, Well 2","0.5μM, third assay",2.8745
same,"OD490 value, Well 3","0.5μM, third assay",2.7301
same,"OD490 value, Mean","1μM, first assay",2.5355
same,"OD490 value, Well 1","1μM, first assay",2.6242
same,"OD490 value, Well 2","1μM, first assay",2.5242
same,"OD490 value, Well 3","1μM, first assay",2.4580
same,"OD490 value, Mean","1μM, second assay",2.6019
same,"OD490 value, Well 1","1μM, second assay",2.7530
same,"OD490 value, Well 2","1μM, second assay",2.3014
same,"OD490 value, Well 3","1μM, second assay",2.7514
same,"OD490 value, Mean","1μM, third assay",2.6769
same,"OD490 value, Well 1","1μM, third assay",2.6365
same,"OD490 value, Well 2","1μM, third assay",2.7412
same,"OD490 value, Well 3","1μM, third assay",2.6531
same,"OD490 value, Mean","10μM, first assay",2.6047
same,"OD490 value, Well 1","10μM, first assay",2.6883
same,"OD490 value, Well 2","10μM, first assay",2.6311
same,"OD490 value, Well 3","10μM, first assay",2.4948
same,"OD490 value, Mean","10μM, second assay",2.6182
same,"OD490 value, Well 1","10μM, second assay",2.7032
same,"OD490 value, Well 2","10μM, second assay",2.6012
same,"OD490 value, Well 3","10μM, second assay",2.5503
same,"OD490 value, Mean","10μM, third assay",2.6419
same,"OD490 value, Well 1","10μM, third assay",2.7745
same,"OD490 value, Well 2","10μM, third assay",2.6563
same,"OD490 value, Well 3","10μM, third assay",2.4949
same,"OD490 value, Mean","25μM, first assay",2.3973
same,"OD490 value, Well 1","25μM, first assay",2.3040
same,"OD490 value, Well 2","25μM, first assay",2.5337
same,"OD490 value, Well 3","25μM, first assay",2.3542
same,"OD490 value, Mean","25μM, second assay",2.3999
same,"OD490 value, Well 1","25μM, second assay",2.5301
same,"OD490 value, Well 2","25μM, second assay",2.4698
same,"OD490 value, Well 3","25μM, second assay",2.1998
same,"OD490 value, Mean","25μM, third assay",2.4241
same,"OD490 value, Well 1","25μM, third assay",2.5355
same,"OD490 value, Well 2","25μM, third assay",2.5124
same,"OD490 value, Well 3","25μM, third assay",2.2245
same,"OD490 value, Mean","50μM, first assay",2.2890
same,"OD490 value, Well 1","50μM, first assay",2.3872
same,"OD490 value, Well 2","50μM, first assay",2.2920
same,"OD490 value, Well 3","50μM, first assay",2.1878
same,"OD490 value, Mean","50μM, second assay",2.2189
same,"OD490 value, Well 1","50μM, second assay",2.3332
same,"OD490 value, Well 2","50μM, second assay",2.3089
same,"OD490 value, Well 3","50μM, second assay",2.0147
same,"OD490 value, Mean","50μM, third assay",2.2950
same,"OD490 value, Well 1","50μM, third assay",2.4301
same,"OD490 value, Well 2","50μM, third assay",2.3354
same,"OD490 value, Well 3","50μM, third assay",2.1196
same,"OD490 value, Mean","100μM, first assay",1.7776
same,"OD490 value, Well 1","100μM, first assay",1.7277
same,"OD490 value, Well 2","100μM, first assay",1.8895
same,"OD490 value, Well 3","100μM, first assay",1.7156
same,"OD490 value, Mean","100μM, second assay",1.7632
same,"OD490 value, Well 1","100μM, second assay",1.6245
same,"OD490 value, Well 2","100μM, second assay",1.8996
same,"OD490 value, Well 3","100μM, second assay",1.7654
same,"OD490 value, Mean","100μM, third assay",1.7923
same,"OD490 value, Well 1","100μM, third assay",1.6654
same,"OD490 value, Well 2","100μM, third assay",1.8247
same,"OD490 value, Well 3","100μM, third assay",1.8869
same,IC50,,115 µM
CCOC(=O)c1[nH]c(C2NC(=O)NC(C)=C2C(=O)Nc2ccccc2C)c(C(=O)OC)c1C (centres unmarked) [D4],"OD490 value, Mean","0.5μM, first assay",2.5619
same,"OD490 value, Well 1","0.5μM, first assay",2.3169
same,"OD490 value, Well 2","0.5μM, first assay",2.6787
same,"OD490 value, Well 3","0.5μM, first assay",2.6902
same,"OD490 value, Mean","0.5μM, second assay",2.6585
same,"OD490 value, Well 1","0.5μM, second assay",2.7756
same,"OD490 value, Well 2","0.5μM, second assay",2.2036
same,"OD490 value, Well 3","0.5μM, second assay",2.9963
same,"OD490 value, Mean","0.5μM, third assay",2.6298
same,"OD490 value, Well 1","0.5μM, third assay",2.6541
same,"OD490 value, Well 2","0.5μM, third assay",2.5689
same,"OD490 value, Well 3","0.5μM, third assay",2.6665
same,"OD490 value, Mean","1μM, first assay",2.4999
same,"OD490 value, Well 1","1μM, first assay",2.4427
same,"OD490 value, Well 2","1μM, first assay",2.5466
same,"OD490 value, Well 3","1μM, first assay",2.5103
same,"OD490 value, Mean","1μM, second assay",2.6707
same,"OD490 value, Well 1","1μM, second assay",2.6654
same,"OD490 value, Well 2","1μM, second assay",2.6879
same,"OD490 value, Well 3","1μM, second assay",2.6588
same,"OD490 value, Mean","1μM, third assay",2.5654
same,"OD490 value, Well 1","1μM, third assay",2.6540
same,"OD490 value, Well 2","1μM, third assay",2.5421
same,"OD490 value, Well 3","1μM, third assay",2.5000
same,"OD490 value, Mean","10μM, first assay",2.7063
same,"OD490 value, Well 1","10μM, first assay",2.6331
same,"OD490 value, Well 2","10μM, first assay",2.7562
same,"OD490 value, Well 3","10μM, first assay",2.7295
same,"OD490 value, Mean","10μM, second assay",2.7726
same,"OD490 value, Well 1","10μM, second assay",2.6985
same,"OD490 value, Well 2","10μM, second assay",2.7856
same,"OD490 value, Well 3","10μM, second assay",2.8336
same,"OD490 value, Mean","10μM, third assay",2.5863
same,"OD490 value, Well 1","10μM, third assay",2.3545
same,"OD490 value, Well 2","10μM, third assay",2.7454
same,"OD490 value, Well 3","10μM, third assay",2.6589
same,"OD490 value, Mean","25μM, first assay",2.5844
same,"OD490 value, Well 1","25μM, first assay",2.5014
same,"OD490 value, Well 2","25μM, first assay",2.5977
same,"OD490 value, Well 3","25μM, first assay",2.6541
same,"OD490 value, Mean","25μM, second assay",2.6351
same,"OD490 value, Well 1","25μM, second assay",2.6354
same,"OD490 value, Well 2","25μM, second assay",2.6289
same,"OD490 value, Well 3","25μM, second assay",2.6410
same,"OD490 value, Mean","25μM, third assay",2.6063
same,"OD490 value, Well 1","25μM, third assay",2.5658
same,"OD490 value, Well 2","25μM, third assay",2.6542
same,"OD490 value, Well 3","25μM, third assay",2.5988
same,"OD490 value, Mean","50μM, first assay",2.4897
same,"OD490 value, Well 1","50μM, first assay",2.2013
same,"OD490 value, Well 2","50μM, first assay",2.5633
same,"OD490 value, Well 3","50μM, first assay",2.7046
same,"OD490 value, Mean","50μM, second assay",2.4794
same,"OD490 value, Well 1","50μM, second assay",2.5532
same,"OD490 value, Well 2","50μM, second assay",2.4198
same,"OD490 value, Well 3","50μM, second assay",2.4652
same,"OD490 value, Mean","50μM, third assay",2.5366
same,"OD490 value, Well 1","50μM, third assay",2.4650
same,"OD490 value, Well 2","50μM, third assay",2.5462
same,"OD490 value, Well 3","50μM, third assay",2.5985
same,"OD490 value, Mean","100μM, first assay",1.9103
same,"OD490 value, Well 1","100μM, first assay",1.9024
same,"OD490 value, Well 2","100μM, first assay",1.9524
same,"OD490 value, Well 3","100μM, first assay",1.8761
same,"OD490 value, Mean","100μM, second assay",2.0041
same,"OD490 value, Well 1","100μM, second assay",2.0124
same,"OD490 value, Well 2","100μM, second assay",2.0036
same,"OD490 value, Well 3","100μM, second assay",1.9963
same,"OD490 value, Mean","100μM, third assay",1.9351
same,"OD490 value, Well 1","100μM, third assay",1.8989
same,"OD490 value, Well 2","100μM, third assay",1.9478
same,"OD490 value, Well 3","100μM, third assay",1.9587
same,IC50,,> 150 µM
